Assay [1] has as its target Neuronal acetylcholine receptor subunit alpha-4 (Homo sapiens, UniProt P43681).
Assay [2] concerns the target Acetylcholine receptor subunit alpha (Homo sapiens, UniProt P02708).

Neuronal acetylcholine receptor subunit alpha-4, sequence (P43681 whole entry): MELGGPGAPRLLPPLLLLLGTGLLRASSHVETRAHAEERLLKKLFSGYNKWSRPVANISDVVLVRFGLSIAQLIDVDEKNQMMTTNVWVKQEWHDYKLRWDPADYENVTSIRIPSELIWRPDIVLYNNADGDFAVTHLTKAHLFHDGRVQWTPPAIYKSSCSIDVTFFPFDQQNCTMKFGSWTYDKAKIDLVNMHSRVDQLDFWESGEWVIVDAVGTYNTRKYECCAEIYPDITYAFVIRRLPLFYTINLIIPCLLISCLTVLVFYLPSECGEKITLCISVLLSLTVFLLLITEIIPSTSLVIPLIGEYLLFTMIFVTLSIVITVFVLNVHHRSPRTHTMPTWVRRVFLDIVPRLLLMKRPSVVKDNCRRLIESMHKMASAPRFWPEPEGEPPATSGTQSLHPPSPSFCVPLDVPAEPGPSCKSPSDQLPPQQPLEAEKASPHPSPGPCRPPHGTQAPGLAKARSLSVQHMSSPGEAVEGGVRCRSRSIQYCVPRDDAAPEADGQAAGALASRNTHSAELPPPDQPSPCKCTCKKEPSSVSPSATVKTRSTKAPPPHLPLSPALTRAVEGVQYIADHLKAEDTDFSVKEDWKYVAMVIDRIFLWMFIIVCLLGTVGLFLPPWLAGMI
Acetylcholine receptor subunit alpha, sequence (P02708 as listed by the source): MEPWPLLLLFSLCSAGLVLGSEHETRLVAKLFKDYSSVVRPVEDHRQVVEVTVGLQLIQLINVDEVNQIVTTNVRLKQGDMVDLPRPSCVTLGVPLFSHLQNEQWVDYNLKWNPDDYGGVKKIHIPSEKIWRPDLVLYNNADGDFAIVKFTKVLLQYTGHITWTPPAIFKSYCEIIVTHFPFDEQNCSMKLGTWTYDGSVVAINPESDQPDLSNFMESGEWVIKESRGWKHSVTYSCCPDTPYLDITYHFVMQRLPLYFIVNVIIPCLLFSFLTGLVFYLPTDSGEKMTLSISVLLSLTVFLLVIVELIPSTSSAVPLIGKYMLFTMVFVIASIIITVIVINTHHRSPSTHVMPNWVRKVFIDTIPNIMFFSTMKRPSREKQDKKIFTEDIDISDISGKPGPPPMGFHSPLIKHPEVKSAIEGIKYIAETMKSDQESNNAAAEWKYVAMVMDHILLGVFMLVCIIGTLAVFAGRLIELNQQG

With `c1cnc2c(c1)O[C@H]1CCN3CC[C@@]1(C2)C3`, the figures for the Ki in assay [1] and in assay [2] were 0.036 µM and 6 µM, respectively.

One may read the Ki as the equilibrium dissociation constant of an inhibitor or competing ligand from its target.

Values taken from BindingDB's records for doi:10.1124/jpet.103.049262 (Sanofi-Synthelabo Research, 2003).
